Columns and labels:
[1] = Chemical stability (chemical hydrolysis) at different pH and temperature, HPLC of residual RSVTR; type: physicochemical; details: dark
Method: The chemical hydrolysis of RSVTR was studied at pH 2.0 (0.2 N HCI), 6.8 and 7.2 (phosphate buffer solutions). All solutions containing the same amount of RSVTR (1.18 µM) were kept in the dark at a constant temperature of 37 °C, 22 °C, and 5 °C. At appropriate time intervals, chosen to obtain enough data to pinpoint the stability profile (0, 2, 4, 8, 24, 48, 72, 96, 168, 696 h at pH 7.2; 0, 2, 4, 8, 24, 48, 72, 96, 192, 528, 768 h at pH 6.8; 0, 2, 4, 8, 24, 48, 72, 96, 528 h at pH 2.0), samples were withdrawn and analyzed immediately by HPLC for the residual RSVTR.
Pseudo-first-order rate constants were determined from the slope of the linear portion of the graph obtained, plotting the logarithm of the residual amount of RSVTR against time. RSVTR half-life (t1/2) was calculated according to Equation (1): t1/2 = […] (1) where k is the pseudo-first-order rate constant.
RSVTR was analyzed using an isocratic binary mobile phase consisting of 5% of acetonitrile and 95% of triethylamine 0.3% (v/v) in water (pH adjusted to 3.0 with trifluoroacetic acid). The flow rate was set at 1.0 mL/min and the column was maintained at 24 °C throughout the analysis. Chromatograms were acquired at 290 nm after analyzing RSVTR UV spectra in the range 200–400 nm and the retention time of RSVTR was approximately 5.40 min. The analytical method was validated according to ICH guidelines.

[2] = Oxygen Radical Absorbance Capacity (ORAC) assay; type: biochemical; details: samples 100 μg/mL properly diluted, AAPH 100 mM, fluorescein 10 nM, 37 °C, pH 7.0; values only in Figure 7
Method: The ORAC assay determined the fluorescence decrease of fluorescein (10 nM) after its oxidation in the presence of AAPH and the investigated samples (100 μg/mL) properly diluted, as previously reported [46, 47]. The assays were carried out at 37 °C, pH 7.0 recording fluorescence through a Wallac Victor 1420 Multilabel Counters fluorimeter (PerkinElmer, Waltham, MA, USA) (excitation λ = 540 nm, emission λ = 570 nm). Trolox (12.5 μM) and phosphate buffer were used as control standard and blank, respectively. The area under the quenching curve of fluorescein was used to calculate ORAC value of the investigated compounds using Origin®7 (OriginLab Corporation, Northampton, USA). ORAC Units, expressed as trolox micromole per microgram of sample (μmol/μg), were obtained according to Equation (2): ORAC value (μmol/μg) = K(S sample − S blank)/(S Trolox − S blank) (2) where K is the sample dilution factor, S the area under the fluorescence decay curve of sample, trolox or blank. Each experiment was performed in triplicate and data were expressed as mean ± SD

[3] = molecular target: T1, bovine serum albumin (BSA) (Bos taurus, UniProt P02769); test: Anti-glycation activity, AGEs formation through Maillard reaction (BSA + D-fructose); type: biochemical; details: samples 400 μg/mL, BSA 10 mg/mL + D-fructose 0.5 M, pH 7.4, 37 °C, 7 days; values only in Figure 8
T1 construct: purchased Sigma-Aldrich S.r.l; (Milan, Italy)
T1 sequence (P02769 25-607): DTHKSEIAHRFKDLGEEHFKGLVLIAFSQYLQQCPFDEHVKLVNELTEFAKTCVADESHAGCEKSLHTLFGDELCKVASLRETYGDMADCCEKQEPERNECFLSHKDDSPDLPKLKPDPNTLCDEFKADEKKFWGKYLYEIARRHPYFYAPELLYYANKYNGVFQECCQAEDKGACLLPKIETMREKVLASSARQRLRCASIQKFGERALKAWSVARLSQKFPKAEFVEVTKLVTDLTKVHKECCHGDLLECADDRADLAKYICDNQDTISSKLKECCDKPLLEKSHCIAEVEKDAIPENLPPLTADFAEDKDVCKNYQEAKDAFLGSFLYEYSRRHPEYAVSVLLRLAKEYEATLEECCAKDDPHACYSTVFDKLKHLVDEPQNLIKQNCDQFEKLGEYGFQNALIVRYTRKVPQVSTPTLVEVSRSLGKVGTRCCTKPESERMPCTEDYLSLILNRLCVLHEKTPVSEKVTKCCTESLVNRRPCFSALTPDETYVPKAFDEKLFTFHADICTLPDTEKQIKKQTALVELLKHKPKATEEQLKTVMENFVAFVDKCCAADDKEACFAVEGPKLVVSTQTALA
Method: Protein model bovine serum albumin (BSA) (10 mg/mL) incubated with D-fructose (0.5 M) in phosphate buffer 50 mM, pH 7.4 and NaN3 0.02% was used as positive control. BSA alone was the negative control while aminoguanidine (AMG) (400 μg/mL) was used as a reference. Final glycated BSA solutions (300 μL), alone and with samples (400 μg/mL), were incubated at 37 °C in 96-well microtiter closed with their silicon lids for 7 days. The inhibition of fluorescence was determined using a Wallac Victor 1420 Multilabel Counters fluorimeter (PerkinElmer, Waltham, MA, USA) (λexc 370 nm; λem 440 nm). Relative fluorescence units (RFU) were recorded and the percentage of AGEs formation inhibition was calculated as follows (Equation (3)): % of inhibition = {1 − (RFU sample/RFU Positive control)} × 100 (3)
Each experiment was performed in triplicate and data were expressed as mean ± SD Statistical analysis of the results was performed using Student’s t-test (p < 0.05).

Cc1c(C)c2c(c(C)c1O)CCC(C)(C(=O)Oc1ccc(/C=C/c3cc(OC(=O)C4(C)CCc5c(C)c(O)c(C)c(C)c5O4)cc(OC(=O)C4(C)CCc5c(C)c(O)c(C)c(C)c5O4)c3)cc1)O2 (stereo not drawn) [RSVTR]
half-life at 1.18 µM ([1]; 0.2 N HCl solution, pH 2, pH 2.0 (0.2 N HCl), 5 °C): 19.2 days | half-life at 1.18 µM ([1]; 0.2 N HCl solution, pH 2, pH 2.0 (0.2 N HCl), 22 °C): 8.25 days | half-life at 1.18 µM ([1]; 0.2 N HCl solution, pH 2, pH 2.0 (0.2 N HCl), 37 °C): 5.54 days | half-life at 1.18 µM ([1]; phosphate buffer, pH 6.8, pH 6.8 phosphate buffer, 5 °C): 48.1 days | half-life at 1.18 µM ([1]; phosphate buffer, pH 6.8, pH 6.8 phosphate buffer, 22 °C): 36.1 days | half-life at 1.18 µM ([1]; phosphate buffer, pH 6.8, pH 6.8 phosphate buffer, 37 °C): 28.9 days | half-life at 1.18 µM ([1]; phosphate buffer, pH 7.2, pH 7.2 phosphate buffer, 5 °C): 72.2 days | half-life at 1.18 µM ([1]; phosphate buffer, pH 7.2, pH 7.2 phosphate buffer, 22 °C): 28.9 days | half-life at 1.18 µM ([1]; phosphate buffer, pH 7.2, pH 7.2 phosphate buffer, 37 °C): 12.5 days | Antioxidant activity (ORAC), result in words [2]: lower antioxidant capacity | Anti-glycation activity (inhibition of AGEs formation), result in words [3]: better anti-glycation agent than RSV | melting point: 113 to 116 °C

Reference: publication PMC7823449 (Antioxidants, 2020)
